This note sets out measurements from US11083743B2, “DNA hypomethylating agents for cancer therapy” (priority 2013, dated 2021).

The structures appear in SMILES notation.

Test [1] deals with TS/A cells. The test is described as follows: Anti-tumor activity on TS/A tumor grafts in T cell-deficient athymic nude mice. The following applies: FIG. 6A, first cycle only. It is filed as in vivo. On the procedure:
(§1) Six-week-old female BALB/c, athymic nude and SCID/Beige mice were obtained from Harlan laboratories (Udine, Italy). Animal care and use were in accordance with Institutional guidelines and the indications of Workman et al. (Workman P, et al. Br J Cancer. 2010 May 25; 102(11): 1555-1577).
(§2) Mice were sc injected in the flank region with TS/A cells (2×10^5) resuspended in 0.1 ml of physiologic saline. Animals were examined daily and after a latency period of 1 week, mice bearing clearly palpable and visible tumor grafts (diameter≥0.2 cm) were ip injected with 0.2 ml/injection of i) 15 mg/kg/day of 5-AZA-CdR, three times a day every three hours on days 0 and 7 and on days 42 and 49 for the 2nd cycle of treatment; ii) 100 μg/mouse of anti-CTLA-4 mAb, on days 2, 5 and 8 and on days 44, 47 and 50 for the 2nd cycle of treatment; iii) 100 μg/mouse of anti-PDL-1 mAb on days 2, 5 and 8; iv) combined administration of 5-AZA-CdR and anti-CTLA-4 mAb according to the above reported schedules or; v) combined administration of 5-AZA-CdR and anti-PDL-1 mAb according to the above reported schedules. […] Animals were weekly monitored for changes in the tumor size or sacrificed by CO2 overdose; for the latter, tumor tissues were surgically removed, and each specimen, divided under sterile conditions, were snap-frozen in liquid nitrogen and stored at −80° C. until used for RNA and DNA extraction.

The subject of test [2] is P1A. The test is described as follows: Real-time quantitative RT-PCR of P1A expression in excised tumor tissues. In kind it is in vivo, murine. The following applies: FIG. 5; normalized to β-actin. On the procedure:
Mice were sc injected in the flank region with TS/A cells (2×10^5) resuspended in 0.1 ml of physiologic saline. […] Control mice were ip injected with 0.2 ml of saline solution. Animals were weekly monitored for changes in the tumor size or sacrificed by CO2 overdose; for the latter, tumor tissues were surgically removed, and each specimen, divided under sterile conditions, were snap-frozen in liquid nitrogen and stored at -80° C. until used for RNA and DNA extraction. RNA and DNA were extracted from tissues sections, removed from control and treated mice one week after the end of the first cycle treatment (day 8) and homogenized with the aid of Tissue Lyser II (QIAGEN) in Trizol reagent or lysis buffer, respectively. Total RNA was extracted following the manufacturer's instructions and stored at -80° C. […] Real-time quantitative RT-PCR analyses were performed as previously described (Calabro L, et al., J Cell Physiol 2005; 202:474-7) Briefly, total RNA was digested with RNAse-free DNAse (Roche Diagnostics), to remove contaminating genomic DNA. […] Measurement of gene expression was performed utilizing the ABI prism 7000 Sequence Detection System (Applied Biosystems), as previously described (Calabro L, et al., J Cell Physiol 2005; 202:474-7). cDNA standards were obtained by RT-PCR amplification of the specific mRNAs and quantitated by NanoDrop® ND-1000 UV-Vis Spectrophotometer. […]

Test [3] relates to TS/A cells. The test is described as follows: Anti-tumor activity on TS/A tumor grafts in syngeneic BALB/c mice (caliper tumor volume). It is filed as in vivo. Conditions: FIG. 1. On the procedure: Primary cultures of murine mammary carcinoma cells TS/A were grown in DMEM Medium supplemented with 10% heat-inactivated FCS (Lonza), 2 mM L-glutamine (Biochrom AG) and 50 μM β-mercaptoethanol. Six-week-old female BALB/c, athymic nude and SCID/Beige mice were obtained from Harlan laboratories (Udine, Italy). Animal care and use were in accordance with Institutional guidelines and the indications of Workman et al. (Workman P, et al. Br J Cancer. 2010 May 25; 102(11): 1555-1577). Mice were sc injected in the flank region with TS/A cells (2×10^5) resuspended in 0.1 ml of physiologic saline. […] Control mice were ip injected with 0.2 ml of saline solution. Animals were weekly monitored for changes in the tumor size or sacrificed by CO2 overdose; for the latter, tumor tissues were surgically removed, and each specimen, divided under sterile conditions, were snap-frozen in liquid nitrogen and stored at −80° C. until used for RNA and DNA extraction. In vivo tolerability was evaluated by measurements of body weight and mortality rate. The antiproliferative activity of the drug was evaluated by caliper measurements of tumor mass. Body weight and tumor size measurements were recorded periodically, all along the treatment. Tumor volumes (TV) were calculated as follows: TV=LD^2/2 (in which L is the longest diameter and D the shortest one).

The subject of test [4] is murine CTA (P1A, Mage-a family). The test is described as follows: RT-PCR analysis of murine CTA expression in excised tumor tissues. The following applies: FIG. 4, tumors excised one week after end of first cycle. In kind it is in vivo. On the procedure:
Mice were sc injected in the flank region with TS/A cells (2×10^5) resuspended in 0.1 ml of physiologic saline. […] Control mice were ip injected with 0.2 ml of saline solution. Animals were weekly monitored for changes in the tumor size or sacrificed by CO2 overdose; for the latter, tumor tissues were surgically removed, and each specimen, divided under sterile conditions, were snap-frozen in liquid nitrogen and stored at -80° C. until used for RNA and DNA extraction. RNA and DNA were extracted from tissues sections, removed from control and treated mice one week after the end of the first cycle treatment (day 8) and homogenized with the aid of Tissue Lyser II (QIAGEN) in Trizol reagent or lysis buffer, respectively. Total RNA was extracted following the manufacturer's instructions and stored at -80° C. Total genomic DNA was extracted by digestion with 100 μg/ml proteinase K in the presence of 0.5% SDS at 50° C. overnight, followed by phenol/chloroform extraction and ethanol precipitation. Genomic DNA was eluted in TE buffer and stored at -20° C. RT-PCR reactions were performed using oligonucleotide primer sequences and PCR amplification programs specific for […] and Mage-a family (Coral S, Covre A et al, Br J Cancer. 2012 Sep. 25; 107(7):1116-24). […]

Test [5] concerns MHC class I antigens. The test can be described thus: MHC class I antigen expression on tumours of treated mice. In kind it is in vivo.
The subject of test [6] is TS/A cells. The test can be described thus: Anti-tumor activity on TS/A tumor grafts in SCID/Beige mice. It is filed as in vivo. The following applies: FIG. 6B, first cycle only. On the procedure: as §1, §2
For test [7], the system named is P1A promoter. The test is described as follows: qMSP analysis of P1A promoter methylation in excised tumor tissues. In kind it is in vivo, murine. Conditions: FIG. 3; tumors excised one week after end of first cycle (day 8). Here is the method: Mice were sc injected in the flank region with TS/A cells (2×10^5) resuspended in 0.1 ml of physiologic saline. […] Control mice were ip injected with 0.2 ml of saline solution. Animals were weekly monitored for changes in the tumor size or sacrificed by CO2 overdose; for the latter, tumor tissues were surgically removed, and each specimen, divided under sterile conditions, were snap-frozen in liquid nitrogen and stored at -80° C. until used for RNA and DNA extraction. RNA and DNA were extracted from tissues sections, removed from control and treated mice one week after the end of the first cycle treatment (day 8) and homogenized with the aid of Tissue Lyser II (QIAGEN) in Trizol reagent or lysis buffer, respectively. Total RNA was extracted following the manufacturer's instructions and stored at -80° C. Total genomic DNA was extracted by digestion with 100 μg/ml proteinase K in the presence of 0.5% SDS at 50° C. overnight, followed by phenol/chloroform extraction and ethanol precipitation. Genomic DNA was eluted in TE buffer and stored at -20° C. […] Primers for the analysis of the methylation status of […], designed using the free on-line software MethPrimer (Li L C and […] Bioinformatics 2002; 18:1427-31), were: […] (Methylated), forward [NT] ID No. 5), reverse [NT] ID No. 6); […] (Unmethylated), forward [NT] ID No. 7), reverse [NT] ID No. 8). […]

The subject of test [8] is tumour. The test can be described thus: Histology and immunohistochemistry of surgically-excised tumors from treated mice. In kind it is in vivo.

With `Nc1ncn([C@H]2C[C@H](O)[C@@H](CO)O2)c(=O)n1` [5-AZA-CdR, 5-aza-2′-deoxycytidine], the tumor growth entry was “significantly (p<0.05 and p<0.01) reduced tumor growth” in test [1]; “significantly (p<0.05 and p<0.01) reduced tumor growth” in test [6]. For the same compound, the “levels of P1A-specific mRNA expression, 5-AZA-CdR alone compared with combination” value in test [2] is given as “similar”. Besides, the tumor growth inhibition was found to be 40.7% in test [3] (day 15, vs control mice) and 67.6% in test [3] (day 35, vs control mice). Besides, in test [4], the “expression of P1A and Mage-a members in tumor tissues” value is recorded as “strong de novo expression”. The “constitutive expression of MHC class I antigens on tumours” value in test [5] is “increases”. Moreover, in test [7], the “constitutive methylation levels of P1A promoter in cancer tissues vs control mice” value was “significant (p<0.05) reduction”. Further, in test [8], the “lymphocyte infiltration into the tumour” value was “neither induces lymphocyte infiltration”. The tumour necrosis result in test [8] is “does not induce tumour necrosis”.
